The values that follow come from patent US6436920B1, “Wrinkling modifiers” (Kao Corporation, priority 1996, dated 2002).

For this assay, the system named is Wrinkles formed on hairless mice by exposure to UVB. Kind of assay: Effect of the guanidine derivatives on wrinkles formed on hairless mice by exposure to UVB. The format is in vivo, Hairless mice (HR/ICR). Particulars: for Area percent by image analysis (%): proportion of shadows of wrinkles on back skin replicas (14 mm, illuminated at 30 degrees), 4% in aqueous ethanol, 100 μl 5 times a week over 6 weeks, control 10.6; for Wrinkle index: visual score 1 (wrinkles completely removed or smoothed) to 4 (observed to a great extent), 4% in aqueous ethanol (50/50 vol. %), 100 μl applied 5 times a week over 6 weeks, groups of 8 mice, control 3.73. The procedure:
Effect of the Guanidine Derivatives (1) to (16) on Wrinkles Formed on Hairless Mice by Exposure to UVB
(1) Hairless mice (HR/ICR, aged 6 weeks at the beginning of the experiment) were,exposed to UVB 3 times a week by using 6 Toshiba healthy lamps, 20SE. The amount of energy was measured by means of a UV-Radiometer, UVR-305/365D manufactured by TOKYO OPTICAL K.K. The dose upon one exposure was determined to be 1 MED or less, i.e., 65 mJ in an amount of energy of 0.28 mW/cm^2. The exposure was effected for 20 weeks. After confirming that the hairless mice had got wrinkles at their backs, they were divided into groups each consisting of 8 mice. Aqueous ethanol (water/ethanol=50/50 vol. %) solutions separately containing Compounds (1) to (16) at a concentration of 4% were applied 5 times a week to their corresponding groups of mice over 6 weeks in a dose of 100 μl. As a control, aqueous ethanol (water/ethanol=50/50 vol. %) was applied in a dose of 100 μl like the samples. After completion of the application, the degree of wrinkles was visually observed to evaluate the samples in accordance with the following standard (wrinkle index).
1: Wrinkles were completely removed or smoothed;
2: Wrinkles were scarcely observed;
3: Wrinkles were somewhat observed;
(2) In order to further analyze the particulars of wrinkles, skin replicas of the size of 14 mm in diameter were gathered from a portion of the back in each of the mice using a Hydrophilic Exaflex hydrophilic vinylsilicone impression material. Each of these replicas was held horizontally and illuminated at an angle of 30 degrees from the horizontal direction, thereby finding a proportion of shadows of the wrinkles as an area percent by means of an image analyzer.

Regarding `N=C(N)N1CC(O)CC1C(=O)O` (centres unmarked) [Compound (1)], the “Area percent by image analysis (%)” value was determined as 3.21% and the Wrinkle index is 2.0.
For `N=C(N)N1CCCC1C(=O)O` (centres unmarked) [Compound (2)] the same measures were 2.48% and 2.125.
For `N=C(N)N1CCC(O)C1` (centres unmarked) [Compound (3)] the same measures were 4.32% and 2.50.
For `N=C(N)N1CCCC1CO` (centres unmarked) [Compound (4)] the same measures were 5.37% and 2.50.
In the case of `N=C(N)N1CCOCC1` [Compound (5)], the “Area percent by image analysis (%)” value was found to be 4.76% and the Wrinkle index stood at 2.75.
For `N=C(N)N1CCC(C(=O)O)CC1` [Compound (6)] the same measures were 3.51% and 2.75.
For `N=C(N)N1CCN(C(=N)N)CC1` [Compound (7)] the same measures were 4.28% and 2.75.
Taken in the same sequence, the figures for `N=C(N)N1CCC(O)C1` (centres unmarked) [Compound (8)] were 3.26% and 2.25.
Turning to `N=C(N)N1CCCC1CO` (centres unmarked) [Compound (9)], the “Area percent by image analysis (%)” value was determined as 4.00% and the Wrinkle index was 2.375.
`N=C(N)N1CCOCC1` [Compound (10)]: the “Area percent by image analysis (%)” value is reported as 3.41% and the Wrinkle index is reported as 2.50.
Taken in the same sequence, the figures for `N=C(N)N1CCN(C(=N)N)CC1` [Compound (11)] were 4.02% and 2.75.
Take `N=C(N)N1CCC(O)C1` (centres unmarked) [Compound (12)]: the “Area percent by image analysis (%)” value is 3.62% and the Wrinkle index came to 2.50.
Taken in the same sequence, the figures for `N=C(N)N1CCCC1CO` (centres unmarked) [Compound (13)] were 4.30% and 2.375.
Take `N=C(N)N1CCCC1` [Compound (14)]: the “Area percent by image analysis (%)” value is 3.62% and the Wrinkle index is 2.125.
Taken in the same sequence, the figures for `N=C(N)N1CCCCC1` [Compound (15)] were 4.48% and 2.50.
Taken in the same sequence, the figures for `N=C(N)N1CCC(CC(=O)O)CC1` [Compound (16)] were 4.25% and 2.25.
